From article PMC8778818, “Synthesis, Structural Characterization and Anticancer Activity of New 5-Trifluoromethyl-2-thioxo-thiazolo[4,5-d]pyrimidine Derivatives” (Pharmaceuticals, 2022)
Several values for one entry are separate records, joined by “and”; a condition that tells them apart may be missing. Equal entries are not always repeated.

Key:
[1] = system: U251; experiment: NCI-60 screen, CNS Cancer U251; assay type: cell-based, human; settings: for Growth of Cells (%): U251, 10^−5 M one dose
[2] = system: OVCAR-5; experiment: NCI-60 screen, Ovarian Cancer OVCAR-5; assay type: cell-based, human; settings: for Growth of Cells (%): OVCAR-5, 10^−5 M one dose
[3] = system: CAKI-1; experiment: NCI-60 screen, Renal Cancer CAKI-1; assay type: cell-based, human; settings: for Growth of Cells (%): CAKI-1, 10^−5 M one dose
[4] = system: HCC-2998; experiment: NCI-60 screen, Colon Cancer HCC-2998; assay type: cell-based, human; settings: for Growth of Cells (%): HCC-2998, 10^−5 M one dose
[5] = system: MALME-3M; experiment: NCI-60 screen, Melanoma MALME-3M; assay type: cell-based, human; settings: for Growth of Cells (%): 10^−5 M one dose
[6] = system: UO-31; experiment: NCI-60 screen, Renal Cancer UO-31; assay type: cell-based; settings: for Growth of Cells (%): UO-31, 10^−5 M one dose
[7] = system: CCRF-CEM; experiment: NCI-60 screen, Leukemia CCRF-CEM; assay type: cell-based, human; settings: for Growth of Cells (%): 10^−5 M one dose
[8] = system: NCI-H460; experiment: NCI-60 screen, Non-Small Cell Lung Cancer NCI-H460; assay type: cell-based, human; settings: for Growth of Cells (%): NCI-H460, 10^−5 M one dose
[9] = system: MOLT-4; experiment: NCI-60 screen, Leukemia MOLT-4; assay type: cell-based, human; settings: for Growth of Cells (%): MOLT-4, 10^−5 M one dose
[10] = system: SR; experiment: NCI-60 screen, Leukemia SR; assay type: cell-based, human; settings: for Growth of Cells (%): 10^−5 M one dose
[11] = system: MDA-MB-435; experiment: NCI-60 screen, Melanoma MDA-MB-435; assay type: cell-based, human; settings: for Growth of Cells (%): MDA-MB-435, 10^−5 M one dose
Method: The search for the cytotoxic activity of new derivatives usually starts with in vitro cell-based screening. Four compounds 2b (NSC D-745983/1), 3b (NSC D-766111/1), 4b (NSC D-785591/1) and 4c (NSC D-771706/1), selected by the National Cancer Institute were tested in the anticancer screen for a panel of approximately 60 human disease-oriented tumor cell lines, organized into subpanels derived from nine human cancer types—leukemia, melanoma, and cancers of the lung, colon, brain, breast, ovary, prostate, and kidney. They were initially tested at only one concentration of 10 µM (10^−5 M) for each cell line, which were inoculated and preincubated on a microtiter plate for […]. The results of the one-dose anticancer assay for the tested new compounds are reported as the percentage of the treated cell growth in comparison with untreated no-drug control. This allows for detection of the growth inhibition—values 0–100 and cytotoxicity; negative numbers mean cell death.
Antitumor activity in five dose testing (10^−4−10^−8 M) is expressed by three different dose–response parameters for each of the 60 human tumor cell lines. The GI50 value (molar concentration causing a half-growth inhibition), TGI (molar concentration required for total growth inhibition), which signifies the cytostatic effect, and LC50 (molar concentration of the compound required for 50% cell death). LC50 signifies the cytotoxic effect. […] Nevertheless, the selectivity for GI50 can be seen for several cell lines within subpanel leukemia (SR, log GI50 −6.36) and non-small cell lung cancer (NCI-H522, log GI50 −6.69).
The antitumor screening (NCI-60) was performed at the National Cancer Institute, Bethesda, USA. A total panel of approximately 60 human tumor cell lines derived from nine different cancer types (leukemia, non-small cell lung, colon, brain, melanoma, ovarian, renal, prostate and breast) formed the basis of this in vitro test. The origins and processing of the cell lines used in the study were described previously. First, the compounds were evaluated in a primary anticancer assay at 10^−5 M. Results for each tested compound are reported as the percent of growth of the treated cells. […] The human tumor cell lines of the cancer screening panel were grown in an RMPI 1640 medium containing 5% fetal bovine serum and 2 mM of L-glutamine. Each cell line was inoculated and preincubated at 37 °C, 5% CO2, 95% air and 100% relative humidity for 24 h, before the addition of the test compound into 96-well microtiter plates in 100 µL at plating densities ranging from 5000 to 40,000 cells/well. The density of inoculum depends on the type of tumor cell and its growth characteristics. The screened compounds were solubilized in dimethyl sulfoxide at 400-fold the desired final concentration and stored frozen. At the time of the test agents’ addition, an aliquot of frozen concentrate was thawed and diluted to twice the desired final concentration with complete medium containing 50 µg/mL gentamicin. Next, the test compounds were evaluated at the four additional 10-fold dilutions to reach the final concentrations plus control. Aliquots of 100 µL of the different dilutions (100, 10, 1, […] µM/mL) of the tested compounds were added to microtiter wells, and the culture was incubated for 48 h under the same conditions. Cell were fixed in situ by the addition of 50 µL of cold 50% trichloroacetic acid and incubated for 60 min at 4 °C. The supernatant was discarded; plates were washed five times with water and air-dried. Sulforhodamine B at 0.4% in 1% acetic acid, 100 µL, was added to each well, then plates were incubated for 10 min at room temperature. Unbound dye was removed by washing five times with 1% acetic acid and air dried. The protein-bound stain was solubilized with a […] trizma base and the absorbance was read on an automated plate reader. A wavelength of 515 nm was used to read optical densities. […]

[12] = system: HOP-62; experiment: NCI-60 screen, Non-Small Cell Lung Cancer HOP-62; assay type: cell-based; settings: for Growth of Cells (%): HOP-62, 10^−5 M one dose
[13] = Homo sapiens, U-251, U251, five doses 10^−4–10^−8 M
[14] = Homo sapiens, HCC-2998, five doses 10^−4–10^−8 M
[15] = Homo sapiens, five doses 10^−4–10^−8 M
[16] = Homo sapiens, five doses 10^−4–10^−8 M, read-out: log LC50 (the source's name) (converted)
[17] = Homo sapiens, MOLT-4, five doses 10^−4–10^−8 M

With `O=c1[nH]c(C(F)(F)F)nc2c1sc(=S)n2-c1ccccc1` [Compound 2b, 3-phenyl-2-thioxo-5-(trifluoromethyl)-2,3-dihydro[1, 3]thiazolo[4,5-d]pyrimidin-7(6H)-one] the “Growth of Cells (%)” value [1] was 101.63%, the “Growth of Cells (%)” value [2] was 101.99% and the “Growth of Cells (%)” value [3] was 124.11%. The “Growth of Cells (%)” value [4] was 116.48%, the “Growth of Cells (%)” value [5] was 121.70% and the “Growth of Cells (%)” value [6] was 91.22%. For the same molecule, the “Growth of Cells (%)” value [7] was 96.48%, the “Growth of Cells (%)” value [8] was 123.50% and the “Growth of Cells (%)” value [9] was 117.56%. The “Growth of Cells (%)” value [10] was 105.93% and the “Growth of Cells (%)” value [11] was 114.64%.

With `FC(F)(F)c1nc(Cl)c2sc(=S)n(-c3ccccc3)c2n1` [Compound 3b, 7-chloro-3-phenyl-5-(trifluoromethyl)[1, 3]thiazolo[4,5-d]pyrimidine-2(3H)-thione] the GI50 [1, 13] was 1.74 µM, the LC50 (lethal concentration 50%) [1, 13] was 5.75 µM and the “log TGI” value ([1]; U251, five doses 10^−4–10^−8 M) was −5.50 log M. For the same molecule, the GI50 ([2]; Homo sapiens, OVCAR-5, five doses 10^−4–10^−8 M) was 8.71 µM, the CC50 ([2]; Homo sapiens, OVCAR-5, five doses 10^−4–10^−8 M, read-out: log LC50 (the source's name) (converted)) was 64.6 µM and the “Growth of Cells (%)” value [2] was 86.56%. The “log TGI” value ([2]; OVCAR-5, five doses 10^−4–10^−8 M) was −4.60 log M, the “Growth of Cells (%)” value [3] was 81.74% and the “log TGI” value ([3]; CAKI-1, five doses 10^−4–10^−8 M) was −5.51 log M. The GI50 ([3]; Homo sapiens, CAKI-1, five doses 10^−4–10^−8 M) was 1.66 µM, the CC50 ([3]; Homo sapiens, CAKI-1, five doses 10^−4–10^−8 M, read-out: log LC50 (the source's name) (converted)) was 5.75 µM and the “Growth of Cells (%)” value [4] was −26.98% and −26.89%. The “log TGI” value ([4]; HCC-2998, five doses 10^−4–10^−8 M) was −5.31 log M, the GI50 [4, 14] was 2.24 µM and the LC50 [4, 14] was 12.9 µM. For the same molecule, the “Growth of Cells (%)” value [5] was 40.72%, the GI50 [5, 15] was 2.29 µM and the LC50 (concentration causing 50% cell kill) [5, 15] was 8.13 µM. For the same molecule, the “log TGI” value ([5]; five doses 10^−4–10^−8 M) was −5.37 log M, the GI50 ([6]; Homo sapiens, UO-31, read-out: log GI50 (converted)) was 1.7 µM and the CC50 ([6]; Homo sapiens, UO-31, five doses 10^−4–10^−8 M, read-out: log LC50 (the source's name) (converted)) was 6.03 µM. For the same molecule, the “Growth of Cells (%)” value [6] was −82.97%, the “log TGI” value ([6]; UO-31, five doses 10^−4–10^−8 M) was −5.49 log M and the “Growth of Cells (%)” value [12] was 95.98%. The “log TGI” value ([12]; HOP-62, five doses 10^−4–10^−8 M) was −5.46 log M, the GI50 ([12]; Homo sapiens, HOP-62, read-out: log GI50 (converted)) was 1.86 µM and the CC50 ([12]; Homo sapiens, HOP-62, five doses 10^−4–10^−8 M, read-out: log LC50 (the source's name) (converted)) was 6.31 µM. The “Growth of Cells (%)” value [7] was −51.41%, the GI50 [7, 15] was 0.933 µM and the CC50 [7, 16] was greater than 100 µM. For the same molecule, the “log TGI” value ([7]; five doses 10^−4–10^−8 M) was −5.50 log M, the GI50 ([8]; Homo sapiens, NCI-H460, five doses 10^−4–10^−8 M) was 3.24 µM and the CC50 ([8]; Homo sapiens, NCI-H460, five doses 10^−4–10^−8 M, read-out: log LC50 (the source's name) (converted)) was 50.1 µM. The “Growth of Cells (%)” value [8] was 68.89%, the “log TGI” value ([8]; NCI-H460, five doses 10^−4–10^−8 M) was −4.99 log M and the GI50 [9, 17] was 3.09 µM. The LC50 [9, 17] was greater than 100 µM, the “Growth of Cells (%)” value [9] was −27.71% and the “log TGI” value ([9]; MOLT-4, five doses 10^−4–10^−8 M) was −5.07 log M. The GI50 [10, 15] was 0.437 µM, the CC50 [10, 16] was greater than 100 µM and the “log TGI” value ([10]; five doses 10^−4–10^−8 M) was −5.70 log M. The GI50 ([11]; Homo sapiens, MDA-MB-435, five doses 10^−4–10^−8 M) was 1.86 µM, the CC50 ([11]; Homo sapiens, MDA-MB-435, five doses 10^−4–10^−8 M, read-out: log LC50 (the source's name) (converted)) was 7.41 µM and the “Growth of Cells (%)” value [11] was 6.26%. The “log TGI” value ([11]; MDA-MB-435, five doses 10^−4–10^−8 M) was −5.43 log M.

In the case of `CCNc1nc(C(F)(F)F)nc2c1sc(=S)n2-c1ccccc1` [Compound 4b, 7-(ethylamino)-3-phenyl-5-(trifluoromethyl)[1, 3]thiazolo[4,5-d]pyrimidine-2(3H)-thione], the “Growth of Cells (%)” value [1] is reported as 93.27%, the “Growth of Cells (%)” value [2] is reported as 112.27% and the “Growth of Cells (%)” value [3] is reported as 93.63%. The “Growth of Cells (%)” value [4] was 115.06%, the “Growth of Cells (%)” value [5] was 144.23% and the “Growth of Cells (%)” value [6] was 103.75%. The “Growth of Cells (%)” value [12] was 86.06%, the “Growth of Cells (%)” value [8] was 100.34% and the “Growth of Cells (%)” value [9] was 81.83%. The “Growth of Cells (%)” value [10] was 83.46% and the “Growth of Cells (%)” value [11] was 112.84%.

In the case of `Fc1ccc(CNc2nc(C(F)(F)F)nc3c2sc(=S)n3-c2ccccc2)cc1` [Compound 4c], the “Growth of Cells (%)” value [2] is reported as 102.72%, the “Growth of Cells (%)” value [3] is reported as 94.38% and the “Growth of Cells (%)” value [4] is reported as 118.24%. The “Growth of Cells (%)” value [5] was 106.31%, the “Growth of Cells (%)” value [6] was 82.87% and the “Growth of Cells (%)” value [12] was 92.88%. For the same molecule, the “Growth of Cells (%)” value [7] was 102.97%, the “Growth of Cells (%)” value [8] was 109.73% and the “Growth of Cells (%)” value [9] was 96.58%. The “Growth of Cells (%)” value [10] was 94.72% and the “Growth of Cells (%)” value [11] was 102.86%.
